Data published in patent US20160257651A1, “NOVEL COMPOUND WITH ANTIBACTERIAL ACTIVITY” (priority 2013, published 2016).
Values after ≈ are worked out from the molar mass of the structure shown. Like-named read-outs stand apart in the source and are kept apart here.

Key:
S. aureus Mu50 NR1-1 = test: microbe, parasite or virus in culture; type: cell-based; conditions: Staphylococcus aureus, MU50NR11
Description: (§1) Then, the cell suspension was diluted 500 times with CAMHB mentioned above.

[1] = system: S. aureus MR5867 three-step mutant; test: MIC against stepwise QRDR mutants; type: cell-based; conditions: Staphylococcus aureus
Text: (§2) In order to further verify that the action site of the compound J-131CP is gyrA, there were examined antibacterial activities against the MRSA, S. aureus MR5867, and stepwise-mutated strains (one-step mutant strain to three-step mutant strain) of S. aureus MR5867 in which mutation was introduced into QRDR, as well as the MSSA, S. aureus MS5952, and stepwise-mutated strains (one-step mutant strain to three-step mutant strain) of S. aureus MS5952 in which mutation was introduced into QRDR (those strains mentioned above are described in Antimicrob. Agents Chemother., 42(8), pp. 1917-1922, 1998) by the following methods. The strains used for this test example are available from the inventors of the present invention.
(§3) The compound J-131CP and quinolones were prepared in the same manner as that of Test Example 1-1.
as §1
(§4) CAMHB containing each of the compound J-131CP and quinolones at each concentration was added to each well of a 96-well plate in a volume of 50 μL/well, the aforementioned cell suspension diluted 500 times was added to the well in a volume of 50 μL/well, and stationary culture was carried out overnight at 37° C. in the same manner as that of Test Example 1-1.

[2] = system: S. aureus MR5867 two-step mutant; test: MIC against stepwise QRDR mutants; type: cell-based; conditions: Staphylococcus aureus
Text: as §2, §3, §1, §4

S. aureus MR5867 = test: MIC against stepwise QRDR mutants; type: cell-based; conditions: Staphylococcus aureus
Text: as §2, §3, §1, §4

[3] = system: S. aureus MS5952 three-step mutant; test: MIC against stepwise QRDR mutants; type: cell-based; conditions: Staphylococcus aureus
Text: as §2, §3, §1, §4

[4] = system: S. aureus MS5952 two-step mutant; test: MIC against stepwise QRDR mutants; type: cell-based; conditions: Staphylococcus aureus
Text: as §2, §3, §1, §4

S. aureus MS5952 = test: MIC against stepwise QRDR mutants; type: cell-based; conditions: Staphylococcus aureus
Text: as §2, §3, §1, §4

[5] = system: S. aureus MR5867 one-step mutant; test: MIC against stepwise QRDR mutants; type: cell-based; conditions: Staphylococcus aureus
Description: (§5) The strains used for this test example are available from the inventors of the present invention.
as §1

[6] = system: S. aureus MS5952 one-step mutant; test: MIC against stepwise QRDR mutants; type: cell-based; conditions: Staphylococcus aureus
Description: as §5, §1

E. faecium NCTC12202 = test: MIC against Enterococcus bacteria; type: cell-based, Enterococcus faecium; conditions: Enterococcus faecium, NCTC 12202 / VRE; E. faecium NCTC12202, VRE, quinolone-susceptible; read-out: MIC
Description: (§6) Antibacterial activities of the compound J-131CP against Enterococcus bacteria (Enterococcus faecium and Enterococcus faecalis) were examined by the following methods.
as §3
(§7) Cell suspensions were prepared in the same manner as that of Test Example 1-1 described in the section of measurement of MIC in Test Example 1-1, except that the Enterococcus bacterium strains mentioned in Table 8 were used instead of Staphylococcus aureus, and MICs of the compound J-131CP and quinolones as control were determined for the strains in the same manner as that of Test Example 1-1 described in the section of measurement of MIC in Test Example 1-1. In Table 8, the amino acid substitution mutations in QRDR of the strains are underlined.

E. faecium RPR2 = test: MIC against Enterococcus bacteria; type: cell-based, Enterococcus faecium; conditions: Enterococcus faecium, RPR2
Description: as §6, §3, §7

E. faecalis 36-15722 = test: MIC against Enterococcus bacteria; type: cell-based, Enterococcus faecalis; conditions: Enterococcus faecalis, 3615722; E. faecalis 36-15722, quinolone-resistant; ParC 80Ile, GyrA 84Ile; read-out: MIC
Description: as §6, §3, §7

S. pneumoniae BCLSP16 = test: MIC against pneumococcus, CAMHB with 5 mass % LHB; type: cell-based; conditions: Streptococcus pneumoniae, BCLSP16
Text: (§8) Antibacterial activity of the compound J-131CP against pneumococcus (Streptococcus pneumoniae) was examined by the following method. The S. pneumoniae strains used for this test belong to any one of the categories of penicillin-susceptible pneumococcus (penicillin-susceptible Streptococcus pneumoniae, PSSP), penicillin-intermediate pneumococcus (penicillin-intermediate Streptococcus pneumoniae, PISP), and penicillin-resistant pneumococcus (penicillin-resistant Streptococcus pneumoniae, PRSP).
(§9) The compound J-131CP and quinolones were prepared in the same manner as that of Test Example 1-1, except that CAMHB containing 5 mass % of lysed horse blood (LHB) was used for the dilution instead of CAMHB. The lysed horse blood was prepared by adding sterilized water to horse sterile defibered blood (produced by Nippon Bio-Supp. Center) at a ratio of 1:1, subjecting the mixture to freezing and thawing 5 times, then centrifuging the mixture twice at 10,000 rpm for 20 minutes, and filtering the supernatant through a filter.
(§10) The S. pneumoniae strains mentioned in Table 11 were each cultured overnight at 37° C. on a blood agar medium as stationary culture. The blood agar medium was prepared by adding 5 mass % ovine sterile defibered blood (produced by Nippon Bio-Supp. Center) to a heart infusion agar medium (produced by EIKEN CHEMICAL). Each S. pneumoniae strain cultured overnight at 37° C. as stationary culture was further subcultured overnight at 37° C. on fresh blood agar medium as stationary culture. After completion of the culture, cells of each pneumococcus strain were collected with a swab, and suspended in physiological saline, and the suspension was adjusted with physiological saline to show absorbance of 0.08 to 0.13 at 625 nm as measured with an absorbance meter (produced by Amersham), and further diluted 200 times with CAMHB containing 5 mass % LHB.
(§11) CAMHB containing the compound J-131CP at each concentration or each quinolone at each concentration, and 5 mass % LHB was added to each well of a 96-well plate in a volume of 50 μL/well, each cell suspension diluted 200 times was added to the well in a volume of 50 μL/well, and stationary culture was carried out overnight at 37° C.
(§12) After completion of the culture, whether the bacterium proliferated or not was determined on the basis of visually observed turbidity of the culture in the well, and MIC values (mg/L) of the compound J-131CP and the quinolones for the strains were determined. In Table 11, the amino acid substitution mutations in QRDR of the strains are underlined.

S. pneumoniae JHSP11 = test: MIC against pneumococcus, CAMHB with 5 mass % LHB; type: cell-based; conditions: Streptococcus pneumoniae
Text: as §8, §9, §10, §11, §12

S. pneumoniae KBSP04 = test: MIC against pneumococcus, CAMHB with 5 mass % LHB; type: cell-based; conditions: Streptococcus pneumoniae
Text: as §8, §9, §10, §11, §12

[7] = S. pneumoniae KBSP04, PISP, read-out: MIC

| SMILES | MIC (S. aureus Mu50 NR1-1) [µg/mL] | MIC [1] [µg/mL] | MIC [2] [µg/mL] | MIC (S. aureus MR5867) [µg/mL] | MIC [3] [µg/mL] | MIC [4] [µg/mL] | MIC (S. aureus MS5952) [µg/mL] | MIC [5] [µg/mL] | MIC [6] [µg/mL] | MIC (E. faecium NCTC12202) [µg/mL] | MIC (E. faecium RPR2) [µg/mL] | MIC (E. faecalis 36-15722) [µg/mL] | MIC (S. pneumoniae BCLSP16) [µg/mL] | MIC (S. pneumoniae JHSP11) [µg/mL] | MIC (S. pneumoniae KBSP04; [7]) [µg/mL] | MIC (S. pneumoniae KBSP04; KBSP04) [µg/mL] |
| --- | --- | --- | --- | --- | --- | --- | --- | --- | --- | --- | --- | --- | --- | --- | --- | --- |
| CCn1cc(C(=O)O)c(=O)c2cc(F)c(N3CCNCC3)cc21 [NOR, norfloxacin] | 16 (≈ 50.1 µM) | > 128 | 64 (≈ 200 µM) | 1 (≈ 3.13 µM) | 128 (≈ 401 µM) | 16 (≈ 50.1 µM) | 1 (≈ 3.13 µM) | 16 (≈ 50.1 µM) | 16 (≈ 50.1 µM) | 2 (≈ 6.26 µM) | > 128 | 128 (≈ 401 µM) | > 128 | 128 (≈ 401 µM) | 4 (≈ 12.5 µM) | – |
| CC1COc2c(N3CCN(C)CC3)c(F)cc3c(=O)c(C(=O)O)cn1c23 (stereo not drawn) [OFX, ofloxacin] | 2 (≈ 5.53 µM) | 64 (≈ 177 µM) | 16 (≈ 44.3 µM) | 0.25 (≈ 0.692 µM) | 64 (≈ 177 µM) | 8 (≈ 22.1 µM) | 0.25 (≈ 0.692 µM) | 1 (≈ 2.77 µM) | 1 (≈ 2.77 µM) | 1 (≈ 2.77 µM) | > 128 | 64 (≈ 177 µM) | 16 (≈ 44.3 µM) | 8 (≈ 22.1 µM) | 0.5 (≈ 1.38 µM) | – |
| C[C@@H]1CN(c2c(F)c(N)c3c(=O)c(C(=O)O)cn(C4CC4)c3c2F)C[C@H](C)N1 [SPX, sparfloxacin] | 0.25 (≈ 0.637 µM) | 16 (≈ 40.8 µM) | 8 (≈ 20.4 µM) | < 0.06 | 128 (≈ 326 µM) | 16 (≈ 40.8 µM) | < 0.06 | < 0.06 | 8 (≈ 20.4 µM) | 0.25 (≈ 0.637 µM) | > 128 | 64 (≈ 163 µM) | 16 (≈ 40.8 µM) | > 32 | – | 0.125 (≈ 0.319 µM) |
| NC1CCN(c2nc3c(cc2F)c(=O)c(C(=O)O)cn3-c2ccc(F)cc2F)C1 (stereo not drawn) [TSX, tosufloxacin] | 0.5 (≈ 1.24 µM) | > 128 | 8 (≈ 19.8 µM) | < 0.06 | > 128 | 8 (≈ 19.8 µM) | 0.25 (≈ 0.618 µM) | 0.25 (≈ 0.618 µM) | 2 (≈ 4.95 µM) | 0.25 (≈ 0.618 µM) | > 128 | > 128 | 8 (≈ 19.8 µM) | 8 (≈ 19.8 µM) | – | 0.125 (≈ 0.309 µM) |
